Converted amounts (≈) assume the structure as drawn.
Key:
hERG = target: T1, hERG (Homo sapiens, UniProt Q12809); assay: hERG binding assay based on fluorescence polarization
T1 construct: purchased Invitrogen; host or cells: membrane preparation of the kit
Method: Predictor hERG Assay test kits were obtained from Invitrogen (Carlsbad, CA). The binding assay was carried out according to the manufacturer’s instructions. […] Working Tracer solution (5 μL) was then added and the plate was allowed to incubate at room temperature for at least 1 h, and then fluorescence polarization was measured using the Synergy 4 Hybrid Microplate Reader from BioTek Instruments (Winooski, VT) with 530/25 excitation and 590/35 emission filters along with a 570 nm cut off dichroic mirror. Polarization values were calculated automatically using Gen Data Analysis Software (BioTek Instruments). The above protocol is described in detail in the Invitrogen’s application note.

[1] = Microsomal stability, monkey; type: in vitro ADME; settings: liver microsomes, pH 7.4, monkey (Mk), 0.5 mg/mL, NADPH, read-out: Microsomal stability (% remaining at 60 min)
Method: (§1) Aliquots were then transferred in duplicate to: (i) a final concentration plate that was immediately quenched with 23.6 ng/mL internal standard (IS, chlorpropamide) in acetonitrile (ACN) or (ii) tubes, which were centrifuged for 5 min at 4℃ (14,000 rpm). The samples were subjected to LC–MS/MS analysis on an AB Sciex 4000 Q Trap hybrid triple quadrupole linear ion-trap MS (AB Sciex, Framingham, MA) coupled to an Agilent 1200 HPLC (Agilent Tech. Santa Clara, CA) with a reverse-phase Kinetex XB-C18 column (2.1 × 100 mm, 2.6 µm; Phenomenex). Mobile phases were comprised of 0.1% formic acid (FA) in water (A) and 0.1 FA in ACN (B). Data analysis was performed using […] (Ver. 1.6.1).

[2] = Microsomal stability, mouse; type: in vitro ADME; settings: liver microsomes, pH 7.4, mouse (M), 0.5 mg/mL, NADPH, read-out: Microsomal stability (% remaining at 60 min)
Method: as §1

Plasma stability, human = type: in vitro ADME; settings: pH 7.4, read-out: Plasma stability (% remaining at 60 min)
Method: as §1

Plasma stability, rat = type: in vitro ADME; settings: pH 7.4, rat (R), read-out: Plasma stability (% remaining at 60 min)
Method: as §1

Plasma stability, mouse = type: in vitro ADME; settings: pH 7.4, mouse (M), read-out: Plasma stability (% remaining at 60 min)
Method: as §1

[3] = Plasma protein binding, rat; type: in vitro ADME; settings: rat (R), read-out: Plasma protein binding (% bound) (converted)
Method: Protein binding was conducted as described. Compound solutions prepared in DMSO were diluted in phosphate buffer (final concentration: 1 µg/mL), and added into human plasma (total volume: 1 mL). Aliquots were then transferred in duplicate to: (i) a final concentration plate that was immediately quenched with 23.6 ng/mL internal standard (IS, chlorpropamide) in ACN, (ii) a degradation control, which was placed in a water bath at 37℃ for 4 h, and (iii) ultracentrifuge tubes, which were centrifuged for 5 min at 4℃ (14,000 rpm). All reactions were stopped by the addition of ACN containing 23.6 ng/mL chlorpropamide. The samples were subjected to LC–MS/MS analysis.

[4] = Plasma protein binding, mouse; type: in vitro ADME; settings: mouse (M), read-out: Plasma protein binding (% bound) (converted)
Thermodynamic solubility = type: physicochemical; settings: thermodynamic from solid
Kinetic solubility = type: physicochemical; settings: 22 °C, kinetic from dmso stock
Method: Kinetic solubility was conducted as described. […] The samples were agitated for 2 h using a plate shaker (500 rpm, 22℃). Approximately 150 µL of the resulting supernatant was transferred to a 96-well analysis plate and the calibration and test samples were analyzed by HPLC with a diode array detector (Agilent 1200 HPLC) comprising a reverse-phase Kinetex XB-C18 column (2.1 × 100 mm, 2.6 µm; Phenomenex). Mobile phases were composed of 0.1% FA in water (A) and 0.1% FA in ACN (B).

[5] = Pharmacokinetic study in mice; type: in vivo, C57BL/6J mice; settings: mouse, plasma
Method: Mice were administered with BR103354 either p.o. […] (2 mg/kg). […] These samples were then centrifuged at 13,000 rpm for 10 min to obtain plasma. […] Samples were analyzed on an API 4500 Qtrap LC‐MS/MS system (Applied Biosystems/MDS Sciex, Toronto, Canada) coupled with Agilent 1200 HPLC (Agilent Technologies, Santa Clara, CA). Plasma concentration–time data were analyzed by non-compartmental method using the nonlinear least-squares regression program WinNonlin (Pharsight, Mountain View, CA).

[6] = Pharmacokinetic study in rats; type: in vivo; settings: male, Sprague-Dawley, plasma, rat, oral 10 mg/kg
From the text: Six male Sprague–Dawley rats (7-week-old, 240–250 g) were obtained from Orient Bio INC. (Seongnam, Gyeonggi-do, Korea) and maintained at 22℃ on a 12-h light/12-h dark cycle with free access to water. All animals were maintained under such conditions for a minimum of 2 weeks prior to initiation of the studies. […] Plasma sample preparations and analysis were the same as described in mice study.

[7] = simulated gastric fluid, pH 1.0
[8] = male, C57BL/6J, po, p.o. 1 mg/kg
[9] = male, C57BL/6J, po, p.o. 5 mg/kg
[10] = male, C57BL/6J, po, p.o. 10 mg/kg
[11] = male, C57BL/6J, po, p.o. 100 mg/kg
[12] = male, C57BL/6J, po, p.o. 200 mg/kg

T1 sequence (Q12809 whole entry): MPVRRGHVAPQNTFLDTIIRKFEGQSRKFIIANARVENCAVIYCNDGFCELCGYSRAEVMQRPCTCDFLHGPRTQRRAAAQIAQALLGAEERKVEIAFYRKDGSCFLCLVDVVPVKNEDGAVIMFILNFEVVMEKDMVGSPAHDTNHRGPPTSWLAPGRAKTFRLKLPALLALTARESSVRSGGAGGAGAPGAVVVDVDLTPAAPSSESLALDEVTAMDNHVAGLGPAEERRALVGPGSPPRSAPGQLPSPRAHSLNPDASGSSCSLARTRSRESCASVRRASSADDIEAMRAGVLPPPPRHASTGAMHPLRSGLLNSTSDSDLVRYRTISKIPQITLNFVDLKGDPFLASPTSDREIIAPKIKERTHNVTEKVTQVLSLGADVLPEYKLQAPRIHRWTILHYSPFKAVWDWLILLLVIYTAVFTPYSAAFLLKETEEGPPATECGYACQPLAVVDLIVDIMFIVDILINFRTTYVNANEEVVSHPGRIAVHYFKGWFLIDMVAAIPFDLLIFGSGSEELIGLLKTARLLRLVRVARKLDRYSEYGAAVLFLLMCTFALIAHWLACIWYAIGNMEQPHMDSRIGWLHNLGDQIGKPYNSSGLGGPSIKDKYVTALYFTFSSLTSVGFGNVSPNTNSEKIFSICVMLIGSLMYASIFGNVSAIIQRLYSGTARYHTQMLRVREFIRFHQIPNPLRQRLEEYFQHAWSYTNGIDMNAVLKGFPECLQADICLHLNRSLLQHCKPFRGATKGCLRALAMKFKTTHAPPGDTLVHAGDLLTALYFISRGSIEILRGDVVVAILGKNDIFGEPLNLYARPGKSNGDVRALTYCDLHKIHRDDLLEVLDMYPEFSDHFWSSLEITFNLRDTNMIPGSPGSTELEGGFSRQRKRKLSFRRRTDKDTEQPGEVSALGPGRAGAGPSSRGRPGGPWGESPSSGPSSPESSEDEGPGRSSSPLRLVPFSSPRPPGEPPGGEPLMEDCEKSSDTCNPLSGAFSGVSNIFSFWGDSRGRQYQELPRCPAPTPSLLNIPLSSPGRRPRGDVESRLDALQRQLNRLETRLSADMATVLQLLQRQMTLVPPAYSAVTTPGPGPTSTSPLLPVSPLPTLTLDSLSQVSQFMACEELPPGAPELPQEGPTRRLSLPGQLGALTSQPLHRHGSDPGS

N#Cc1ccc(Cc2nc(C(=O)NCC(=O)N3CC(F)(F)C[C@H]3C#N)cs2)cc1 [BR103354, (S)-N-(2-(2-cyano-4,4-difluoropyrrolidin-1-yl)-2-oxoethyl)-2-(4-cyanobenzyl)thiazole-4-carboxamide]
IC50 (hERG): > 788 µM
remaining at 1 h, 1 µM [1]: 81%
remaining at 1 h, 1 µM [2]: 98%
remaining at 1 h, 1 µM (Plasma stability, human): > 100%
remaining at 1 h, 1 µM (Plasma stability, rat): 79%
remaining at 1 h, 1 µM (Plasma stability, mouse): 94%
fraction unbound at 1 µg/mL [3]: 0.4
fraction unbound at 1 µg/mL [4]: 0.22
solubility thermodynamic (Thermodynamic solubility; aqueous buffer, pH 3.0): 165 µg/mL (≈ 397 µM)
solubility thermodynamic (Thermodynamic solubility; aqueous buffer, pH 7.0): 141 µg/mL (≈ 339 µM)
solubility thermodynamic (Thermodynamic solubility; [7]): 197 µg/mL (≈ 474 µM)
solubility kinetic at 2 h (Kinetic solubility; pH 3.5, aqueous buffer): 81 µg/mL (≈ 195 µM)
solubility kinetic at 2 h (Kinetic solubility; [7]): 79 µg/mL (≈ 190 µM)
solubility kinetic at 2 h (Kinetic solubility; phosphate buffer, pH 7.4, aqueous buffer): 78 µg/mL (≈ 188 µM)
half-life ([5]; male, C57BL/6J, po, mice, all doses, read-out: half-life (T1/2), range over doses): 1.2 to 4 h
AUC(0-t) [5, 8]: 3700 ng·h/mL
Cmax [5, 8]: 2300 ng/mL
Tmax [5, 8]: 0.5 h
half-life ([5]; male, C57BL/6J, po, p.o. 1 mg/kg, read-out: T1/2 (converted)): 1.2 h
AUC(0-t) [5, 9]: 10800 ng·h/mL
Cmax [5, 9]: 7200 ng/mL
Tmax [5, 9]: 0.5 h
half-life ([5]; male, C57BL/6J, po, p.o. 5 mg/kg, read-out: T1/2 (converted)): 1.1 h
AUC(0-t) [5, 10]: 41100 ng·h/mL
Cmax [5, 10]: 19200 ng/mL
Tmax [5, 10]: 0.5 h
half-life ([5]; male, C57BL/6J, po, p.o. 10 mg/kg, read-out: T1/2 (converted)): 1.2 h
AUC(0-t) [5, 11]: 17000 ng·h/mL
Cmax [5, 11]: 66000 ng/mL
Tmax [5, 11]: 1 h
half-life ([5]; male, C57BL/6J, po, p.o. 100 mg/kg, read-out: T1/2 (converted)): 4 h
AUC(0-t) [5, 12]: 29200 ng·h/mL
Cmax [5, 12]: 122000 ng/mL
Tmax [5, 12]: 1 h
half-life ([5]; male, C57BL/6J, po, p.o. 200 mg/kg, read-out: T1/2 (converted)): 3.8 h
bioavailability ([5]; male, C57BL/6J, oral, i.v. 2 mg/kg): 48.4%
Tmax ([5]; summary in discussion, species and dose not stated): 1 h
half-life ([5]; summary in discussion, species and dose not stated, read-out: T1/2 (converted)): 1.2 h
Cmax [6]: 4400 ng/mL
Tmax [6]: 1.1 h
half-life [6]: 3.5 h
AUC(0-t) ([6]; read-out: AUC(0–6 h)): 19700 ng·h/mL

Source: article PMC7718273 (Scientific Reports, 2020)
